Source: ChEMBL document CHEMBL3259738, “Discovery of substituted benzamides as follicle stimulating hormone receptor allosteric modulators” (Bioorg Med Chem Lett, 2014)
Converted amounts (≈) assume the structure as drawn.

Legend:
[1] = Clearance in rat microsomes; assay type: ADME
[2] = molecular target: T1, Follicle-stimulating hormone receptor (Homo sapiens, UniProt P23945); assay: Positive allosteric modulation of human FSH receptor expressed in CHO cells assessed as effect on FSH-induced cAMP accumulation after 1 hr by HTRF assay; assay type: functional, cell-based
T1 sequence (P23945 whole entry): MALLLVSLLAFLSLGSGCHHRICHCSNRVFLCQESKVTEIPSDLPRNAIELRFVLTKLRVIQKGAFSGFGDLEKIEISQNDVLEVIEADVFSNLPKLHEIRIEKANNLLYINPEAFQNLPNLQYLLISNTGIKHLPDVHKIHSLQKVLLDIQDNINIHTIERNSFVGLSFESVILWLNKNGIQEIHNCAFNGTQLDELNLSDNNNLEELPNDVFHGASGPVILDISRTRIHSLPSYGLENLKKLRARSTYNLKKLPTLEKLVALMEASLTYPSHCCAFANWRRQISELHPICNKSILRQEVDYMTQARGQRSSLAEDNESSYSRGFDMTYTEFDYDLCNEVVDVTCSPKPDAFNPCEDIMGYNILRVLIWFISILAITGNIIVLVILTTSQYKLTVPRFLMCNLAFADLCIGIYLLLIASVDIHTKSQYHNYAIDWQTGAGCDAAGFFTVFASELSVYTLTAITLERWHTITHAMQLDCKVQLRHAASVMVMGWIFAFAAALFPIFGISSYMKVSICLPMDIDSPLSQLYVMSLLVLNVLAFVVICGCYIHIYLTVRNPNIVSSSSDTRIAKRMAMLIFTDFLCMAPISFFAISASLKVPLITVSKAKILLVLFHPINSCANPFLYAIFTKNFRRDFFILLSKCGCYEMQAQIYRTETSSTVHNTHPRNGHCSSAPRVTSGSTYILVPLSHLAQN

[3] = Clearance in human microsomes; assay type: ADME
[4] = molecular target: T2, Follicle-stimulating hormone receptor (Homo sapiens) (UniProt P23945); assay: Positive allosteric modulation of human FSH receptor expressed in CHO cells assessed as effect on FSH-induced cAMP accumulation at 12 uM after 1 hr by HTRF assay relative to FSH; assay type: functional, cell-based
T2 sequence (whole entry): T1 sequence (P23945 whole entry)

[5] = Clearance in immature Sprague-Dawley rat at 0.2 mg/kg, iv; assay type: ADME, organism-based; set-up: dose 0.2 mg/kg, route intravenous; conditions: in vivo
[6] = Induction of estradiol production in rat primary granulosa cells after 24 hrs by ELISA; assay type: functional
[7] = Oral bioavailability in immature Sprague-Dawley rat at 0.5 mg/kg; assay type: ADME, organism-based; conditions: in vivo
[8] = Induction of estradiol production in rat primary granulosa cells after 24 hrs by ELISA relative to FSH; assay type: functional
[9] = Volume of distribution at steady state in immature Sprague-Dawley rat at 0.2 mg/kg, iv; assay type: ADME, organism-based; set-up: dose 0.2 mg/kg, route intravenous; conditions: in vivo, read-out: Vdss
[10] = Aqueous solubility of the compound at pH 7.4; assay type: physicochemical
[11] = molecular target: T2, Follicle-stimulating hormone receptor (Homo sapiens); assay: Positive allosteric modulation of human FSH receptor expressed in CHO cells assessed as effect on FSH-induced cAMP accumulation at 50 uM after 1 hr by HTRF assay relative to FSH; assay type: functional, cell-based

microsomal CLint [1] | EC50 [2] | microsomal CLint [3] | Activity [11] | SMILES | also measured
31 µL/min/mg | 46 nM | 54 µL/min/mg |  | Cc1ccccc1N1CCN(c2ccc(C(=O)NCc3cccc(C(N)=O)c3)cc2NC(=O)c2ccco2)CC1 | 
 |  |  |  | Cc1ccccc1N1CCN(c2ccc(C(=O)NCCCN3CCCC3=O)cc2NC(=O)c2ccncc2)CC1 | Activity [4]: 34%
13 µL/min/mg | 53 nM | 72 µL/min/mg |  | Cc1ccccc1N1CCN(c2ccc(C(=O)N[C@@H]3CCC[C@@H](O)[C@H]3O)cc2NC(=O)c2coc(C3CC3)n2)CC1 | clearance [5]: 3.41 mL/min/kg; EC50 [6]: 5 nM; bioavailability [7]: 23%; Efficacy [8]: 81%; Vd [9]: 1.65 L/kg
18 µL/min/mg | 89 nM | 20 µL/min/mg |  | Cc1ccccc1N1CCN(c2ccc(C(=O)NCCCc3nn[nH]n3)cc2NC(=O)c2coc(C3CC3)n2)CC1 | clearance [5]: 13.2 mL/min/kg; EC50 [6]: 170 nM; solubility [10]: 160 µM (≈ 88.9 µg/mL); bioavailability [7]: 21%; Efficacy [8]: 78%; Vd [9]: 5.46 L/kg
 |  |  |  | Cc1ccccc1N1CCN(c2ccc(C(=O)NCCCN3CCCC3=O)cc2NC(=O)c2cccnc2)CC1 | Activity [4]: 37%
 |  |  | 1% | O=C(NCCCN1CCCC1=O)c1ccc(N2CCNCC2)c(NC(=O)c2ccco2)c1 | 
 |  |  |  | Cc1ccccc1N1CCN(c2ccc(C(=O)NCCCN3CCCC3=O)cc2NS(=O)(=O)c2ccco2)CC1 | Activity [4]: 10%
 |  |  | 20% | COc1ccccc1N1CCN(c2ccc(C(=O)NCCCN3CCCC3=O)cc2NC(=O)c2ccco2)CC1 | 
25 µL/min/mg | 28 nM | 59 µL/min/mg |  | Cc1ccccc1N1CCN(c2ccc(C(=O)NCCCN3CCOC3=O)cc2NC(=O)c2ccco2)CC1 | 
 |  |  | 36% | Cc1ccccc1N1CCN(c2ccc(C(=O)NCCCN3CCCC3=O)cc2NC(=O)c2coc(C3CC3)n2)CC1C (configuration not stated) | 
 |  |  | 13% | Cc1ccc(N2CCN(c3ccc(C(=O)NCCCN4CCCC4=O)cc3NC(=O)c3coc(C4CC4)n3)CC2)cc1 | 
 |  |  | 20% | O=C(NCCCN1CCCC1=O)c1ccc(N2CCN(c3ccccn3)CC2)c(NC(=O)c2ccco2)c1 | 
 |  |  |  | Cc1ccccc1N1CCN(c2ccc(CNCCCN3CCCC3=O)cc2NC(=O)c2coc(C3CC3)n2)CC1 | Activity [4]: 4.5%
38 µL/min/mg | 184 nM | 33 µL/min/mg |  | Cc1ccccc1N1CCN(c2ccc(C(=O)NCCCN3C(=O)CCC3=O)cc2NC(=O)c2ccco2)CC1 | 
 |  |  | 1% | Cc1ccccc1C1CCN(c2ccc(C(=O)NCCCN3CCCC3=O)cc2NC(=O)c2ccco2)CC1 | 
225 µL/min/mg | 99 nM | 260 µL/min/mg |  | Cc1ccccc1N1CCN(c2ccc(C(=O)NCCCN3CCCC3=O)cc2NC(=O)c2coc(C3CC3)n2)CC1 | 
 |  |  |  | Cc1ccccc1N1CCN(c2ccc(C(=O)N3CCC(N4CCCC4=O)CC3)cc2NC(=O)c2ccco2)CC1 | Activity [4]: 40%
233 µL/min/mg |  | 312 µL/min/mg |  | Cc1ccccc1N1CCN(c2ccc(C(=O)NCCCN3CCCC3=O)cc2NC(=O)c2ccco2)CC1 | 
